Source: US11046672B2, “Indolinones compounds and their use in the treatment of fibrotic diseases” (RESPIVERT LIMITED, priority 2015, dated 2021)
pIC50, pKi: −log10 of the molar value. “And” between values parts separate entries of the source, which are not always exact repeats. Equal values may be shown once. Read-outs that look alike come from different tables or passages of the source.

Legend:
[1] = Pharmacokinetic measurements in rats (intravenous and intra-tracheal dosing); assay type: in vivo; settings: rat; for concentration at 0.1 h / concentration at 1.5 h / concentration at 24 h / Kp at 0.1 h / Kp at 1.5 h / Kp at 24 h / MRT / clearance / Vd / half-life: male, CD; for concentration at 0.1 h / concentration at 1.5 h / concentration at 24 h: lung, read-out: lung concentration (nM) at time (h); for Kp at 0.1 h / Kp at 1.5 h / Kp at 24 h: lung/plasma; for MRT / clearance / Vd / half-life: plasma; for clearance: i.v. dosing (i.v. dose 0.1-0.5 per compound); for Vd: read-out: Vss; for half-life: read-out: t½ (converted); for i.t. BAV (%): i.t. dosing (i.t. dose 0.1-0.5 per compound)
PDGFRβ [2] = target: T1, PDGFRβ (Homo sapiens (Human), UniProt P09619); settings: read-out: Ki PDGFRβ; mean, n = 2 unless otherwise indicated
PAMPA permeability assay = assay type: in vitro ADME; settings: for % Recovery / Papp at 5 h, 10 μM / recovery at 5 hr, 10 μM: PAMPA; for % Recovery / recovery at 5 hr, 10 μM: donor and acceptor compartments; for Papp at 5 h, 10 μM: pH 7, pH 7, 10 μM; for recovery at 5 hr, 10 μM: pH 7, PAMPA
PDGFRβ [3] = target: T1, PDGFRβ; assay: PDGF-BB induced phosphorylation of PDGFRβ in fibroblasts (MRC5 cells, HTRF); assay type: cell-based; settings: MRC5 cells; n = 1 unless otherwise indicated; read-out: PDGFBB-induced PDGFRβ phosphorylation in MRC5 cells (IC50)
PDGFRβ [4] = target: T1, PDGFRβ; assay: Duration of action (washout) against PDGF-BB induced phosphorylation of PDGFRβ in human fetal lung fibroblast cells; assay type: cell-based; settings: MRC-5 cells; for % phos: percentage phosphorylation after wash-out relative to maximal phosphorylation (100%): rhuPDGF-BB, experiments in Groups 1-4
MRC5 cells = assay: Cell viability assay in MRC5 cells (MTT)
[5] = other: intra-tracheal, i.t. dosing, 0.1 h
[6] = other: intra-tracheal, i.t. dosing, 1.5 h
[7] = other: intra-tracheal, i.t. dosing, 24 h
[8] = iv, i.v. dosing, 0.1 h, read-out: lung/plasma ratio at time(h)
[9] = iv, i.v. dosing, 1.5 h, read-out: lung/plasma ratio at time(h)
[10] = other: intra-tracheal, i.t. dosing, 0.1 h, read-out: lung/plasma conc ratio at time(h)
[11] = other: intra-tracheal, i.t. dosing, 1.5 h, read-out: lung/plasma conc ratio at time(h)
[12] = other: intra-tracheal, i.t. dosing, 24 h, read-out: lung/plasma conc ratio at time(h)

T1 sequence (P09619 33-1106): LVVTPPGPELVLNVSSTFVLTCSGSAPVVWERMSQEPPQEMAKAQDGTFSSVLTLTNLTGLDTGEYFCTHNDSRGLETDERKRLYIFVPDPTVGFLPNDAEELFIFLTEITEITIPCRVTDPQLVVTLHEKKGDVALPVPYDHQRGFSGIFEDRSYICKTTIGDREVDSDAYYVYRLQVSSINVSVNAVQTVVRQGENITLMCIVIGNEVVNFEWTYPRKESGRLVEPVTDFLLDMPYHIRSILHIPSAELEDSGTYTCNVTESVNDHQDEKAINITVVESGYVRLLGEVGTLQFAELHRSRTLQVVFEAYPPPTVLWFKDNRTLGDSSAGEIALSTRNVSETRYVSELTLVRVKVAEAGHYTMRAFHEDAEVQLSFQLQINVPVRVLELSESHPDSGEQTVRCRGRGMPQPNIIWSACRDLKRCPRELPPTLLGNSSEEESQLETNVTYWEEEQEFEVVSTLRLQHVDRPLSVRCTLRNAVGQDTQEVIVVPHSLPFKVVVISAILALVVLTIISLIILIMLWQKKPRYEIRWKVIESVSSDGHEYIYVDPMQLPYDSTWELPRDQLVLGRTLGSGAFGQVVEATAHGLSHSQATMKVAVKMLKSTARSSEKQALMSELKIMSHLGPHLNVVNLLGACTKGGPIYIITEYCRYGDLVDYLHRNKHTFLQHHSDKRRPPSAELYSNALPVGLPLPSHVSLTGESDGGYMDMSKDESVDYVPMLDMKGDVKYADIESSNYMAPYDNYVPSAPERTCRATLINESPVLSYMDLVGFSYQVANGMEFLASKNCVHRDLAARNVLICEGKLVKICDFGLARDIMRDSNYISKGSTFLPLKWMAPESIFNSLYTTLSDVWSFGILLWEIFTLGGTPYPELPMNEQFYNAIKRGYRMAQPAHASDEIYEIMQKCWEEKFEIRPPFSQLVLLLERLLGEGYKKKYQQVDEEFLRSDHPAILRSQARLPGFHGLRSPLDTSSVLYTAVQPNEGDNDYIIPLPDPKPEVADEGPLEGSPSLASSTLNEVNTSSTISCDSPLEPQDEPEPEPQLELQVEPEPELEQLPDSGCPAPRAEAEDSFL

SMILES	concentration at 0.1 h ([1]; iv, i.v. dosing, 0.1 h)	concentration at 1.5 h ([1]; iv, i.v. dosing, 1.5 h)	concentration at 24 h ([1]; iv, i.v. dosing, 24 h)	concentration at 0.1 h [1, 5]	concentration at 1.5 h [1, 6]	concentration at 24 h [1, 7]	Kp at 0.1 h [1, 8]	Kp at 1.5 h [1, 9]	Kp at 0.1 h [1, 10]	Kp at 1.5 h [1, 11]	Lung conc i.t./i.v. Ratio at time (h) ([1]; 0.1 h)	Lung conc i.t./i.v. Ratio at time (h) ([1]; 1.5 h)	Lung conc i.t./i.v. Ratio at time (h) ([1]; 24 h)	BAL % administered dose at time (h) ([1]; i.t. dosing, 0.1 h)	BAL % administered dose at time (h) ([1]; i.t. dosing, 1.5 h)	pKi (PDGFRβ [2])	pIC50 (PDGFRβ [3])	Cell viability at 100 nM (%) (MRC5 cells)	Cell viability at 300 nM (%) (MRC5 cells)	Cell viability at 1000 nM (%) (MRC5 cells)	other results
COC(=O)c1ccc2c(c1)NC(=O)/C2=C(\Nc1ccc(C(=O)NOCCN(C)C)cc1)c1ccccc1 [Example 3, (Z)-Methyl 3-(((4-((2-(dimethylamino)ethoxy)carbamoyl)phenyl)amino)(phenyl)methylene)-2-oxoindoline-6-carboxylate]	719 nM	325 nM	28 nM	6690 nM	1680 nM	247 nM	126	315	176	1430	9.3	5.2	8.8	3%	0.3%	7.94	8.15	106%	85.4%	67.2%	Kp at 24 h [1, 12]: 503; MRT ([1]; iv, i.v. dosing): 3 h; clearance ([1]; iv): 285 mL/min/kg; Vd ([1]; iv, i.v. dosing): 51 L/kg; half-life ([1]; iv, i.v. dosing): 3.1 h; i.t. BAV (%) [1]: 325%; BAL % administered dose at time (h) ([1]; i.t. dosing, 24 h): 0.1%; BAL % administered dose at time (h) ([1]; i.v. dosing, 0.1 h): 0.03%; BAL % administered dose at time (h) ([1]; i.v. dosing, 1.5 h): 0.02%; BAL % administered dose at time (h) ([1]; i.v. dosing, 24 h): BLQ; % Recovery (PAMPA permeability assay): 76% and 55.3%; Papp at 5 h, 10 μM (PAMPA permeability assay; 5 hr): 0.0384 ×10⁻⁶ cm/s; Mean Papp (PAMPA permeability assay; pH 7, 10 μM, 5 hr): 0.023 10^−6 cm s^−1; % phos: percentage phosphorylation after wash-out relative to maximal phosphorylation (100%) (PDGFRβ [4]): 34.6%
COC(=O)c1ccc2c(c1)NC(=O)/C2=C(\Nc1ccc(C(=O)NOCCN2CCN(C)CC2)cc1)c1ccccc1 [Example 4, (Z)-Methyl 3-(((4-((2-(4-methylpiperazin-1-yl)ethoxy)carbamoyl)phenyl)amino)(phenyl)methylene)-2-oxoindoline-6-carboxylate]	419 nM	266 nM	12 nM	5540 nM	1540 nM	218 nM	77	285	279	1320	13.2	5.8	18.2	3%	0.3%	8.02	7.82	99.2%	94.8%	88.8%	MRT ([1]; iv, i.v. dosing): 2.4 h; clearance ([1]; iv): 462 mL/min/kg; Vd ([1]; iv, i.v. dosing): 39 L/kg; half-life ([1]; iv, i.v. dosing): 2.2 h; i.t. BAV (%) [1]: 67%; BAL % administered dose at time (h) ([1]; i.t. dosing, 24 h): 0.1%; BAL % administered dose at time (h) ([1]; i.v. dosing, 0.1 h): 0.01%; BAL % administered dose at time (h) ([1]; i.v. dosing, 1.5 h): BLQ; BAL % administered dose at time (h) ([1]; i.v. dosing, 24 h): BLQ; lung/plasma ratio at time(h) ([1]; i.v. dosing, 24 h): BLQ; % Recovery (PAMPA permeability assay): 44.9% and 75.6%; Duration of action as inhibitors of PDGFRβ compared with nintedanib (PDGFRβ [4]; wash-out): longer duration of action
COC(=O)c1ccc2c(c1)NC(=O)/C2=C(\Nc1ccc(S(=O)(=O)NOCCN(C)C)cc1)c1ccccc1 [Example 15]	501 nM	209 nM	66 nM	3430 nM	1370 nM	135 nM	55	62	177	884	6.9	6.6	2.0	2.4%	0.6%	7.66	7.70	106.9%	99%	97.5%	Kp at 24 h ([1]; iv, i.v. dosing, 24 h, read-out: lung/plasma ratio at time(h)): 103; Kp at 24 h [1, 12]: 314; BAL % administered dose at time (h) ([1]; i.t. dosing, 24 h): 0.1%; BAL % administered dose at time (h) ([1]; i.v. dosing, 0.1 h): 0.09%; BAL % administered dose at time (h) ([1]; i.v. dosing, 1.5 h): 0.02%; BAL % administered dose at time (h) ([1]; i.v. dosing, 24 h): 0.01%; recovery at 5 hr, 10 μM (PAMPA permeability assay): 37.6%; Papp at 5 h, 10 μM (PAMPA permeability assay; 5 hr): 0.0756 ×10⁻⁶ cm/s
COC(=O)c1cc2c(cc1C)/C(=C(/Nc1ccc(C(=O)N(C)OCCN3CCNCC3)cc1)c1ccccc1)C(=O)N2 [Example 57]	–	–	–	–	–	–	–	–	–	–	–	–	–	–	–	8.01	8.30	123.5%	123.2%	91.2%	recovery at 5 hr, 10 μM (PAMPA permeability assay): 50.5%; Papp at 5 h, 10 μM (PAMPA permeability assay; 5 hr): 0.688 ×10⁻⁶ cm/s; % phos: percentage phosphorylation after wash-out relative to maximal phosphorylation (100%) (PDGFRβ [4]): 73.1%
